ChEMBL document CHEMBL1135570, “Acyclic analogues of adenosine bisphosphates as P2Y receptor antagonists: phosphate substitution leads to multiple pathways of inhibition of platelet aggregation” (J Med Chem, 2002)

Species on record: Rattus norvegicus
Assay: Inhibition of ADP-induced activation of rat platelets using aggregometry
Format: functional

| SMILES | Ki |
| --- | --- |
| CNc1nc(Cl)nc2c1ncn2[C@H]1CC(OP(=O)(O)O)[C@]2(COC(C)=O)CC12 (stereo partly drawn) | 16 µM |
| CNc1nc(Cl)nc2c1ncn2CC(COC(=O)c1ccccc1)COP(=O)(O)O (stereo not drawn) | 18 µM |
| CNc1nc(Cl)nc2c1ncn2CC(CP(=O)(O)O)CP(=O)(O)O | 0.68 µM |
| CNc1nc(Cl)nc2c1ncn2C(COP(=O)(O)O)COP(=O)(O)O | 5.5 µM |
| CNc1nc(Cl)nc2c1ncn2CC(COC(C)=O)COC(=O)c1ccccc1 (stereo not drawn) | 6.9 µM |
| CNc1nc(Cl)nc2c1ncn2CC(COC(=O)Nc1ccccc1)COC(=O)Nc1ccccc1 | 24 µM |
| CNc1nc(Cl)nc2c1ncn2CC(COC(=O)C(C)(C)C)COP(=O)(O)O (stereo not drawn) | 29 µM |
| CCC(=O)OCC(COP(=O)(O)O)Cn1cnc2c(NC)nc(Cl)nc21 (stereo not drawn) | 21 µM |
| CNc1nc(Cl)nc2c1ncn2[C@H]1CC(OP(=O)(O)O)[C@]2(CO)CC12 (stereo partly drawn) | 29 µM |
| CNc1nc(Cl)nc2c1ncn2[C@H]1C[C@@H](OP(=O)(O)O)[C@]2(COP(=O)(O)O)C[C@H]12 | 0.031 µM |
| CNc1nc(Cl)nc2c1ncn2CC(COC(=O)c1ccccc1)COC(=O)c1ccccc1 | 5.1 µM |
| CNc1ncnc2c1ncn2CC(COP(=O)(O)O)COP(=O)(O)O | 0.51 µM |
| CNc1nc(Cl)nc2c1ncn2CC(COP(=O)(O)O)COP(=O)(O)O | 0.3 µM |
| CCNC(=O)O[C@@H]1CC(n2cnc3c(NC)nc(Cl)nc32)O[C@@H]1COP(=O)(O)O (stereo partly drawn) | 11 µM |
| CNc1nc(Cl)nc2c1ncn2CC(COP(=O)(O)OP(=O)(O)O)CP(=O)(O)O (stereo not drawn) | 1.1 µM |
| CNc1nc(Cl)nc2c1ncn2CC(COC(C)=O)COC(C)=O | 18 µM |
| C/C=C\C(=O)OCC(COC(=O)/C=C/C)Cn1cnc2c(NC)nc(Cl)nc21 (stereo not drawn) | 10 µM |
| CNc1nc(Cl)nc2c1ncn2C1C[C@@H](OC(=O)NC(C)C)[C@@H](COP(=O)(O)O)O1 (stereo partly drawn) | 6.4 µM |
| CNc1nc(Cl)nc2c1ncn2CC(COC(=O)c1c(F)cccc1F)COC(=O)c1c(F)cccc1F | 33 µM |

| SMILES | Ki |
| --- | --- |
| CNc1nc(Cl)nc2c1ncn2[C@H]1CC(O)[C@]2(COP(=O)(O)O)CC12 (stereo partly drawn) | 33 µM |
| CNc1nc(Cl)nc2c1ncn2CC(COC(=O)C(C)(C)C)COC(=O)C(C)(C)C | 3.6 µM |
| CNc1nc(Cl)nc2c1ncn2[C@H]1CC(OC(C)=O)[C@]2(COC(C)=O)CC12 (stereo partly drawn) | 29 µM |
| CNc1nc(Cl)nc2c1ncn2CC(COC(=O)Oc1ccccc1)COC(=O)Oc1ccccc1 | 26 µM |
| CNc1nc(Cl)nc2c1ncn2C[C@@H](COP(=O)(O)O)OP(=O)(O)O | 1.4 µM |
| CNc1nc(Cl)nc2c1ncn2CC(COC(=O)Nc1ccccc1)COP(=O)(O)O (stereo not drawn) | 2.5 µM |
| CNc1nc(Cl)nc2c1ncn2CC(COC(C)=O)COP(=O)(O)O (stereo not drawn) | 110 µM |
| CNc1nc(Cl)nc2c1ncn2CC(COC(=O)CCC(=O)O)COC(=O)CCC(=O)O | 18 µM |
| CNc1nc(Cl)nc2c1ncn2CC(COC(=O)c1ccccc1F)COC(=O)c1ccccc1F | 24 µM |
| CNc1nc(Cl)nc2c1ncn2CC(CCCP(=O)(O)O)CCCP(=O)(O)O | 25 µM |
| CCC(=O)OCC(COC(=O)CC)Cn1cnc2c(NC)nc(Cl)nc21 | 23 µM |
| CNc1nc(Cl)nc2c1ncn2[C@H]1C[C@@H](OP(=O)(O)O)[C@@H](COP(=O)(O)O)O1 | 0.42 µM |
| CNc1nc(Cl)nc2c1ncn2CC(COC(=S)SCc1ccccc1)COC(=S)SCc1ccccc1 | 87 µM |
| CNc1nc(Cl)nc2c1ncn2C[C@H](COP(=O)(O)O)OP(=O)(O)O | 2.6 µM |
| CNc1nc(Cl)nc2c1ncn2CC(COC(=O)Cc1ccccc1)COC(=O)Cc1ccccc1 | 2 µM |
| CNc1nc(Cl)nc2c1ncn2CCC(COP(=O)(O)O)COP(=O)(O)O | 0.46 µM |
| CNc1nc(Cl)nc2c1ncn2[C@H]1CC(OC(C)=O)[C@]2(COP(=O)(O)O)CC12 (stereo partly drawn) | 10 µM |
| CNc1nc(Cl)nc2c1ncn2CC(COC(C)=O)COC(=O)Cc1ccccc1 (stereo not drawn) | 12.3 µM |
| CNc1ncnc2c1ncn2[C@H]1C[C@H](OP(=O)(O)O)[C@@H](COP(=O)(O)O)O1 | 0.58 µM |
